In brackets after ≈: the same amount, converted by molar mass. Read-outs that look alike come from different tables or passages of the source.
Assays:
STAPH. AUREUS HH 127 = assay: prophylactic activity, dosing preinfection; type: in vivo, mice
Staphylococcus aureus = assay: standard microtiter assay, minimum inhibitory concentration; type: cell-based
Source text: (§1) Representative results of standard microtiter assays are reported in Tables 1, 2 and 3 which follow, as the minimum inhibitory concentration of antibiotic (μg/ml).
(§2) In Table 1, test organisms 1-13 were different strains of Staphylococcus aureus, and 14-16 were different strains of Staphylococcus epidermidis. In Table 2, test organisms 1-5 were different strains of S. aureus; 6, 8, 12 and 14 were different strains of S. epidermidis; 7 was a Staphylococcus haemolyticus; 9 and 10 were different strains of Streptococcus faecalis; 11 was a Streptococcus pyogenes; and 13 was a Staphylococcus saprophyticus. In Table 3, test organisms 1-3 were different strains of S. aureus; 4 and 6 were different strains of S. epidermidis; 5 was a S. haemolyticus and 7 and 8 were different strains of Streptococcus faecalis. Except where individual components are indicated, the CWI-785 antibiotic employed was the CWI-785 complex; in some cases, HCl salts of the CWI-785 antibiotic were employed.
(§3) The number of strains tested is shown in parentheses below each organism. The average MIC is reported in μg/ml.
(§4) In Table 5 are shown data from standard microtiter assays carried out in a presence of no serum, 50% human serum (hum.) and 50% mouse serum (mse.). The test organisms were 1: S. aureus; 2,4 and 5: different strains of S. epidermidis; 3: S. haemolyticus; 6: S. saprophyticus; 7 and 8: different strains of S. faecalis.

Streptococcus faecalis = assay: as above; type: cell-based
Source text: as §1, §2, §3, §4

[1] = tested on: Staphylococcus epidermidis; assay: as above; type: cell-based
Source text: as §1, §2, §4

[2] = tested on: Staphylococcus haemolyticus; assay: as above; type: cell-based; details: Table 3 test organism 5, S. haemolyticus
Source text: as §1, §2, §4

[3] = tested on: buffered rumen fluid from a donor steer; assay: 23 hour flask rumen fermentation, volatile fatty acid production
Protocol: The effects of each additive on 23 hour flask rumen fermentation were assayed. Each flask contained 10 ml of rumen fluid and 10 ml of nutrient broth comprising (mg/flask): casein hydrolysate: 20, maltose: 100, urea: 15, solka floc (cellulose): 400 and starch: 100. The flasks were incubated on a shaker at 39° C.
In Table A, ACE is acetate, PRO is propionate, IBU is isobutyrate, BUT is butyrate, IVA is isovalerate, VAL is valerate, TOTAL is total VFA and %PR is the amount of propionate relative to TOTAL. Amounts of each VFA are reported as percentages of control ruminant fluid, that is, without additive.

[4] = Table 3 test organism 1, S. aureus strain
[5] = Table 3 test organism 2, S. aureus strain
[6] = Table 3 test organism 3, S. aureus strain
[7] = Table 3 test organism 7, Streptococcus faecalis strain
[8] = Table 3 test organism 8, Streptococcus faecalis strain
[9] = Table 3 test organism 4, S. epidermidis strain
[10] = Table 3 test organism 6, S. epidermidis strain

With CNC(C(=O)NC1C(=O)NC(CCSC)C(=O)NC2C(=O)NC3C(=O)NC(C(=O)NC(C(=O)O)c4cc(O)cc(O)c4-c4cc3ccc4O)C(OC3CC(N)C(O)C(C)O3)c3ccc(c(Cl)c3)Oc3cc2cc(c3O)Oc2ccc(cc2)C1O)c1ccc(O)cc1.Cl (centres unmarked) [HPB4 hydrochloride] the ED50 (STAPH. AUREUS HH 127; Table 7, vs Staph. aureus HH 127 (S.C.), read-out: ED50) was 1.25 mg/kg, the “PERCENT SURVIVAL” value (STAPH. AUREUS HH 127; Table 7: 40 mg/kg, 4 hr preinfection, S.C.) was 100% and the “survival printed in parentheses under ED 50” value (STAPH. AUREUS HH 127; Table 8, printed with ED 50 <0.156) was 100%. For the same compound, the ED50 (STAPH. AUREUS HH 127; Table 8, vs Staph. aureus HH 127 (I.V.)) was < 0.156 mg/kg and the “PERCENT SURVIVAL” value (STAPH. AUREUS HH 127; Table 8: 40 mg/kg (I.V.), 6 hr preinfection) was 100%.

For CN[C@H](C(=O)NC1C(=O)NC(CCSC)C(=O)NC2C(=O)NC3C(=O)NC(C(=O)NC(C(=O)O)c4cc(O)cc(O)c4-c4cc3ccc4O)C(O)c3ccc(c(Cl)c3)Oc3cc2cc(c3O)Oc2ccc(cc2)C1O)c1ccc(O)cc1 (some centres unmarked) [CWI-785B"-aglycone], the minimum inhibitory concentration (Staphylococcus aureus; [4]) was 25.0 µg/mL (≈ 21.5 µM), the minimum inhibitory concentration (Staphylococcus aureus; [5]) was 25.0 µg/mL (≈ 21.5 µM) and the minimum inhibitory concentration (Staphylococcus aureus; [6]) was 25.0 µg/mL (≈ 21.5 µM). It also gave a minimum inhibitory concentration (Streptococcus faecalis; [7]) of 3.1 µg/mL (≈ 2.67 µM), a minimum inhibitory concentration (Streptococcus faecalis; [8]) of 1.6 µg/mL (≈ 1.38 µM) and a minimum inhibitory concentration [1, 9] of 25.0 µg/mL (≈ 21.5 µM). It also gave a minimum inhibitory concentration [1, 10] of 25.0 µg/mL (≈ 21.5 µM) and a minimum inhibitory concentration [2] of 50.0 µg/mL (≈ 43 µM).

In the case of CC[C@@]1([C@@H]2O[C@@H]([C@H]3O[C@@](O)(CO)[C@H](C)C[C@@H]3C)C[C@@H]2C)CC[C@H]([C@]2(C)CC[C@]3(C[C@H](O)[C@@H](C)[C@@H]([C@@H](C)[C@@H](OC)[C@H](C)C(=O)O)O3)O2)O1 [Monensin, monensin], the “ACE (acetate)” value ([3]; 0.50 PPM) is reported as 108 percentages of control, the “BUT (butyrate)” value ([3]; 0.50 PPM) is reported as 100 percentages of control and the “IBU (isobutyrate)” value ([3]; 0.50 PPM) is reported as 101 percentages of control. The “IVA (isovalerate)” value ([3]; 0.50 PPM) was 246 percentages of control, the “PRO (propionate)” value ([3]; 0.50 PPM) was 96 percentages of control and the “TOTAL (total VFA)” value ([3]; 0.50 PPM) was 105 percentages of control. For the same compound, the “VAL (valerate)” value ([3]; 0.50 PPM) was 114 percentages of control, the “ACE (acetate)” value ([3]; 5.00 PPM) was 96 percentages of control and the “BUT (butyrate)” value ([3]; 5.00 PPM) was 60 percentages of control. For the same compound, the “IBU (isobutyrate)” value ([3]; 5.00 PPM) was 77 percentages of control, the “IVA (isovalerate)” value ([3]; 5.00 PPM) was 106 percentages of control and the “PRO (propionate)” value ([3]; 5.00 PPM) was 174 percentages of control. The “TOTAL (total VFA)” value ([3]; 5.00 PPM) was 103 percentages of control, the “VAL (valerate)” value ([3]; 5.00 PPM) was 41 percentages of control and the “ACE (acetate)” value ([3]; 50.00 PPM) was 91 percentages of control. The “BUT (butyrate)” value ([3]; 50.00 PPM) was 53 percentages of control, the “IBU (isobutyrate)” value ([3]; 50.00 PPM) was 104 percentages of control and the “IVA (isovalerate)” value ([3]; 50.00 PPM) was 134 percentages of control. For the same compound, the “PRO (propionate)” value ([3]; 50.00 PPM) was 211 percentages of control and the “VAL (valerate)” value ([3]; 50.00 PPM) was 38 percentages of control.

CN[C@@H](C(=O)NC1C(=O)NC(CCSC)C(=O)NC2C(=O)NC3C(=O)NC(C(=O)NC(C(=O)O)c4cc(O)cc(O)c4-c4cc3ccc4O)C(O)c3ccc(c(Cl)c3)Oc3cc2cc(c3O)Oc2ccc(cc2)C1O)c1ccc(O)cc1 (some centres unmarked) [CWI-785B'-aglycone] gave a minimum inhibitory concentration (Staphylococcus aureus; [4]) of 3.1 µg/mL (≈ 2.67 µM), a minimum inhibitory concentration (Staphylococcus aureus; [5]) of 3.1 µg/mL (≈ 2.67 µM) and a minimum inhibitory concentration (Staphylococcus aureus; [6]) of 3.1 µg/mL (≈ 2.67 µM). For the same compound, the minimum inhibitory concentration (Streptococcus faecalis; [7]) was 0.8 µg/mL (≈ 0.688 µM), the minimum inhibitory concentration (Streptococcus faecalis; [8]) was 0.8 µg/mL (≈ 0.688 µM) and the minimum inhibitory concentration [1, 9] was 3.1 µg/mL (≈ 2.67 µM). The minimum inhibitory concentration [1, 10] was 6.3 µg/mL (≈ 5.42 µM) and the minimum inhibitory concentration [2] was 6.3 µg/mL (≈ 5.42 µM).
